Structures can show the parent of a compound that is named as a salt.

Here are results for 33 compounds from patent US8030321B2, “Benzofuro- and benzothienopyrimidine modulators of the histamine H4 receptor” (Janssen Pharmaceutica, NV, priority 2006, dated 2011).

T1 sequence (Q9H3N8 whole entry): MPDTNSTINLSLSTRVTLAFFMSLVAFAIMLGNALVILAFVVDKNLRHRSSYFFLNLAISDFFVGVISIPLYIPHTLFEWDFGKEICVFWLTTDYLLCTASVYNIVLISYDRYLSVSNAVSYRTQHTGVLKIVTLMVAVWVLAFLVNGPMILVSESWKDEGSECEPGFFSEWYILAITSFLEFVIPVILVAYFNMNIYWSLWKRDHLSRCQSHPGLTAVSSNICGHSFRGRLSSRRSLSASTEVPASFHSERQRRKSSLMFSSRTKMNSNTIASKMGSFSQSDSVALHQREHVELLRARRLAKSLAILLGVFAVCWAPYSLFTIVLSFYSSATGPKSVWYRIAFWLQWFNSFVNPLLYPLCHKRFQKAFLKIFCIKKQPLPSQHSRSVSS

One assay concerns the target T1, human histamine H4 receptor (Homo sapiens, UniProt Q9H3N8).
T1 construct: expressed in transfected cells; host or cells: SK-N-MC cells or COS7 cells, transiently transfected; cell membranes used
Description: Binding Assay on Recombinant Human Histamine H4 Receptor.
Conditions: not given
The method, then:
Binding Assay on Recombinant Human Histamine H4 Receptor
SK-N-MC cells or COS7 cells were transiently transfected with pH4R and grown in 150 cm^2 tissue culture dishes. Cells were washed with saline solution, scraped with a cell scraper and collected by centrifugation (1000 rpm, 5 min). Cell membranes were prepared by homogenization of the cell pellet in 20 mM Tris-HCl with a polytron tissue homogenizer for 10 sec at high speed. Homogenate was centrifuged at 1000 rpm for 5 min at 4° C. […] The final pellet was resuspended in 50 mM Tris-HCl. Cell membranes were incubated with ^3H-histamine (5-70 nM) in the presence or absence of excess histamine (10,000 nM). […] Membranes were harvested by rapid filtration over Whatman GF/C filters and washed 4 times with ice-cold 50 mM Tris HCl. Filters were then dried, mixed with scintillant and counted for radioactivity. SK-N-MC or COS7 cells expressing human histamine H4 receptor were used to measure the affinity of binding of other compounds and their ability to displace ^3H-ligand binding by incubating the above-described reaction in the presence of various concentrations of inhibitor or compound to be tested.
Consider `Nc1nc(N2CC3CCCNC3C2)c2sc3ccc(Br)cc3c2n1` (stereo not drawn) [Example 45, 8-Bromo-4-(octahydro-pyrrolo[3,4-b]pyridin-6-yl)-benzo[4,5]thieno[3,2-d]pyrimidin-2-ylamine hydrochloride salt], for which the Ki turned out to be 4.8 nM.

For the compound `Nc1nc(N2C[C@H]3CCCN[C@H]3C2)c2oc3ccc(Cl)cc3c2n1` [Example 82, (R,R)-8-Chloro-4-(octahydro-pyrrolo[3,4-b]pyridin-6-yl)-benzo[4,5]furo[3,2-d]pyrimidin-2-ylamine citrate salt], the Ki stood at 21 nM.

Staying with this assay, now noted: competition binding with 3H-histamine (5 nM), membranes of SK-N-MC or COS7 cells expressing human H4 receptor; Cheng-Prusoff, KD 5 nM; average of results obtained; read-out: Ki.
Turning to `Nc1nc(N2CCNCC2)c2oc3c(Cl)cc(Cl)cc3c2n1` [Example 31, 6,8-Dichloro-4-piperazin-1-yl-benzo[4,5]furo[3,2-d]pyrimidin-2-ylamine trifluoroacetic acid salt], the inhibition constant (Ki) was 140 nM. Still for that read-out and setting: the figure for `CNc1nc(N2CCN(C)CC2)c2oc3ccc(Cl)cc3c2n1` [Example 124, [8-Chloro-4-(4-methyl-piperazin-1-yl)-benzo[4,5]furo[3,2-d]pyrimidin-2-yl]-methyl-amine] is 97 nM; for `Nc1nc(N2CCC[C@H](N)C2)c2oc3ccc(C(F)(F)F)cc3c2n1` [Example 141, (S)-4-(3-Amino-piperidin-1-yl)-8-trifluoromethyl-benzo[4,5]furo[3,2-d]pyrimidin-2-ylamine trifluoroacetic acid salt] it is 43 nM; for `CN(CCN)c1nc(N)nc2c1oc1ccc(Cl)cc12` [Example 96, N^4-(2-Amino-ethyl)-8-chloro-N^4-methyl-benzo[4,5]furo[3,2-d]pyrimidine-2,4-diamine trifluoroacetic acid salt] it is 2.8 nM.

Turning to `Nc1nc(N2C[C@@H]3C[C@H]2CN3)c2oc3cccc(C(F)(F)F)c3c2n1` [Example 94, (S,S)-4-(2,5-Diaza-bicyclo[2.2.1]hept-2-yl)-9-trifluoromethyl-benzo[4,5]furo[3,2-d]pyrimidin-2-ylamine citrate salt], the Ki was 880 nM. On the same count and under the same terms, the figure for `C[C@@H]1CNCCN1c1nc(N)nc2c1oc1ccc(Cl)cc12` [Example 132, (R)-8-Chloro-4-(2-methyl-piperazin-1-yl)-benzo[4,5]furo[3,2-d]pyrimidin-2-ylamine trifluoroacetic acid salt] is 120 nM; for `Nc1nc(N2CCC[C@H](N)C2)c2oc3cccc(Cl)c3c2n1` [Example 154, (S)-4-(3-Amino-piperidin-1-yl)-9-chloro-benzo[4,5]furo[3,2-d]pyrimidin-2-ylamine trifluoroacetic acid salt] it is more than 10000 nM.

As to `CN[C@@H]1CCN(c2nc(N)nc3c2oc2ccc(F)cc23)C1` [Example 39, (R)-8-Fluoro-4-(3-methylamino-pyrrolidin-1-yl)-benzo[4,5]furo[3,2-d]pyrimidin-2-ylamine trifluoroacetic acid salt], the Ki stood at 2.3 nM. For the compound `COc1ccc2oc3c(N4CCC[C@H](N)C4)nc(N)nc3c2c1` [Example 107, (S)-4-(3-Amino-piperidin-1-yl)-8-methoxy-benzo[4,5]furo[3,2-d]pyrimidin-2-ylamine trifluoroacetic acid salt], the inhibitory constant (Ki) came to 360 nM.

Regarding `Nc1nc(N2CCC(N)C2)c2oc3ccccc3c2n1` (stereo not drawn) [Example 21, 4-(3-Amino-pyrrolidin-1-yl)-benzo[4,5]furo[3,2-d]pyrimidin-2-ylamine trifluoroacetic acid salt], the Ki stood at 5.7 nM. The same measure, in the same setting: the figure for `Nc1nc(N2CCNCC2)c2oc3ccc(Cl)cc3c2n1` [Example 14, 8-Chloro-4-piperazin-1-yl-benzo[4,5]furo[3,2-d]pyrimidin-2-ylamine trifluoroacetic acid salt] is 1.1 nM; for `CN1CCCN(c2nc(NCCO)nc3c2oc2ccc(Cl)cc23)CC1` [Example 127, 2-[8-Chloro-4-(4-methyl-[1,4]diazepan-1-yl)-benzo[4,5]furo[3,2-d]pyrimidin-2-ylamino]-ethanol] it is 260 nM; for `CN[C@@H]1CCN(c2nc(N)nc3c2oc2ncc(Cl)cc23)C1` [Example 109, (R)-3-Chloro-8-(3-methylamino-pyrrolidin-1-yl)-9-oxa-1,5,7-triaza-fluoren-6-ylamine] it is 260 nM.

With `CN(C)C1CCN(c2nc(N)nc3c2oc2ccc(Cl)cc23)C1` (stereo not drawn) [Example 15, 8-Chloro-4-(3-dimethylamino-pyrrolidin-1-yl)-benzo[4,5]furo[3,2-d]pyrimidin-2-ylamine trifluoroacetic acid salt], the inhibitory constant (Ki) stood at 6.2 nM. Still for that read-out and setting: the figure for `Nc1nc(N2CC[C@@H](N)C2)c2oc3ccc(Cl)cc3c2n1` [Example 25, (R)-4-(3-Amino-pyrrolidin-1-yl)-8-chloro-benzo[4,5]furo[3,2-d]pyrimidin-2-ylamine trifluoroacetic acid salt] is 2.4 nM; for `CN[C@@H]1CCN(c2nc(N)nc3c2sc2ccc(Br)cc23)C1` [Example 48, (R)-8-Bromo-4-(3-methylamino-pyrrolidin-1-yl)-benzo[4,5]thieno[3,2-d]pyrimidin-2-ylamine hydrochloride salt] it is 2.1 nM; for `Nc1nc(N2CCN3CCCCC3C2)c2oc3ccccc3c2n1` (stereo not drawn) [Example 36, 4-(Octahydro-pyrido[1,2-a]pyrazin-2-yl)-benzo[4,5]furo[3,2-d]pyrimidin-2-ylamine trifluoroacetic acid salt] it is 680 nM. On the same count and under the same terms, the figure for `CN[C@@H]1CCN(c2nc(N)nc3c2oc2ccc(F)c(F)c23)C1` [Example 148, (R)-8,9-Difluoro-4-(3-methylamino-pyrrolidin-1-yl)-benzo[4,5]furo[3,2-d]pyrimidin-2-ylamine trifluoroacetic acid salt] is 39 nM; for `CCN[C@H]1CCCN(c2nc(N)nc3c2oc2ccc(Cl)cc23)C1` [Example 72, (S)-8-Chloro-4-(3-ethylamino-piperidin-1-yl)-benzo[4,5]furo[3,2-d]pyrimidin-2-ylamine trifluoroacetic acid salt] it is 343 nM; for `CNC1CCN(c2nc(NCCO)nc3c2oc2ccc(Cl)cc23)C1` (stereo not drawn) [Example 126, 2-[8-Chloro-4-(3-methylamino-pyrrolidin-1-yl)-benzo[4,5]furo[3,2-d]pyrimidin-2-ylamino]-ethanol] it is 210 nM. As for `COc1cccc2oc3c(N4CCC[C@H](N)C4)nc(N)nc3c12` [Example 87, (S)-4-(3-Amino-piperidin-1-yl)-9-methoxy-benzo[4,5]furo[3,2-d]pyrimidin-2-ylamine trifluoroacetic acid salt], the Ki was more than 10000 nM. Still for that read-out and setting: the figure for `NC[C@H]1CCCN1c1nc(N)nc2c1oc1ccc(Cl)cc12` [Example 79, (R)-4-(2-Aminomethyl-pyrrolidin-1-yl)-8-chloro-benzo[4,5]furo[3,2-d]pyrimidin-2-ylamine trifluoroacetic acid salt] is more than 10000 nM; for `NCCNc1nc(N)nc2c1oc1ccc(Cl)cc12` [Example 112, N^4-(2-Amino-ethyl)-8-chloro-benzo[4,5]furo[3,2-d]pyrimidine-2,4-diamine trifluoroacetic acid salt] it is 41 nM; for `C[C@H]1CN(c2nc(N)nc3c2oc2ccc(Cl)cc23)CCN1` [Example 133, (S)-8-Chloro-4-(5-methyl-piperazin-1-yl)-benzo[4,5]furo[3,2-d]pyrimidin-2-ylamine trifluoroacetic acid salt] it is 5.7 nM.

Regarding `CN1CCN(c2nc(N)nc3c2oc2cccc(Cl)c23)CC1` [Example 151, 9-Chloro-4-(4-methyl-piperazin-1-yl)-benzo[4,5]furo[3,2-d]pyrimidin-2-ylamine trifluoroacetic acid salt], the Ki is 74 nM. On the same count and under the same terms, the figure for `NCC1CCN(c2nc(N)nc3c2oc2ccc(Cl)cc23)C1` (stereo not drawn) [Example 29, 4-(3-Aminomethyl-pyrrolidin-1-yl)-8-chloro-benzo[4,5]furo[3,2-d]pyrimidin-2-ylamine trifluoroacetic acid salt] is 140 nM; for `C[C@@H]1CN(c2nc(N)nc3c2oc2ccc(Cl)cc23)CCN1` [Example 134, (R)-8-Chloro-4-(5-methyl-piperazin-1-yl)-benzo[4,5]furo[3,2-d]pyrimidin-2-ylamine trifluoroacetic acid salt] it is 50 nM; for `NCC1CN(c2nc(N)nc3c2oc2ccc(Cl)cc23)C1` [Example 103, 4-(3-Aminomethyl-azetidin-1-yl)-8-chloro-benzo[4,5]furo[3,2-d]pyrimidin-2-ylamine trifluoroacetic acid salt] it is 3.4 nM. Same read-out and setting: the figure for `CN[C@H]1CCN(c2nc(N)nc3c2sc2ccc(Cl)cc23)C1` [Example 65, (S)-8-Chloro-4-(3-methylamino-pyrrolidin-1-yl)-benzo[4,5]thieno[3,2-d]pyrimidin-2-ylamine trifluoroacetic acid salt] is 100 nM; for `CN1CCN(c2nc(N)nc3c2sc2cc(Br)ccc23)CC1` [Example 55, 7-Bromo-4-(4-methyl-piperazin-1-yl)-benzo[4,5]thieno[3,2-d]pyrimidin-2-ylamine trifluoroacetic acid salt] it is 43 nM; for `Nc1nc(N2C[C@@H]3C[C@H]2CN3)c2sc3cc(Br)ccc3c2n1` [Example 77, (S,S)-7-Bromo-4-(2,5-diaza-bicyclo[2.2.1]hept-2-yl)-benzo[4,5]thieno[3,2-d]pyrimidin-2-ylamine trifluoroacetic acid salt] it is 3230 nM.

As usually defined, the Ki is the dissociation constant of the complex between target and ligand, obtained from inhibition or displacement.
